In ChEMBL document CHEMBL5042549, “Discovery of Inhibitors of the Lipopolysaccharide Transporter MsbA: From a Screening Hit to Potent Wild-Type Gram-Negative Activity” (J Med Chem, 2022):
≈ marks a conversion by molar mass, not a printed value. Where “and” joins values, the source holds several entries; their conditions need not be identical. Identical values can stand only once. Calls of active or inactive are those of the source. The rule behind the calls is not given here.

Tests used:
[1] = Inhibition of Escherichia coli MsbA preincubated for 10 mins followed by ATP addition and incubated for 1 hr by fluorescence polarization assay
[2] = test system: Pseudomonas aeruginosa; experiment: Antibacterial activity against wild type Pseudomonas aeruginosa PA14 assessed as bacterial growth inhibition by broth microdilution assay; format: functional
[3] = test system: Enterobacter cloacae; experiment: Antibacterial activity against wild type Enterobacter cloacae (ATCC 13047) assessed as membrane stacking at 50 microM by electron microscopy; format: functional, organism-based
[4] = Lipophilicity, logD of compound by shake flask method; format: physicochemical; conditions: octanol/water
[5] = test system: Acinetobacter baumannii; experiment: Antibacterial activity against wild type Acinetobacter baumannii (ATCC 17978) assessed as bacterial growth inhibition by broth microdilution assay; format: functional
[6] = test system: Klebsiella pneumoniae; experiment: Antibacterial activity against wild type Klebsiella pneumoniae MGH78578 (ATCC 700721) assessed as bacterial growth inhibition by broth microdilution assay; format: functional
[7] = Half life in CD-1 mouse at 1 mg/kg, iv measured upto 8 hrs by LC-MS/MS analysis; format: ADME, organism-based; conditions: in vivo
[8] = Clearance in CD-1 mouse at 1 mg/kg, iv measured upto 8 hrs by LC-MS/MS analysis; format: ADME, organism-based; conditions: in vivo
[9] = test system: Escherichia coli; experiment: Antibacterial activity against wild type Escherichia coli MG1655 msbA-cKO lptD (imp4213) expressing Acinetobacter baumannii MsbA assessed as bacterial growth inhibition by broth microdilution assay; format: functional
[10] = test system: Klebsiella pneumoniae; experiment: Antibacterial activity against wild type Klebsiella pneumoniae MGH78578 (ATCC 700721) assessed as membrane stacking at 50 microM by electron microscopy; format: functional, organism-based
[11] = test system: Escherichia coli; experiment: Selectivity ratio of MIC for Escherichia coli MG1655 msbA-cKO lptD (imp4213) […]; format: functional
[12] = test system: Escherichia coli; experiment: Antibacterial activity against wild type Escherichia coli MG1655 msbA-cKO lptD (imp4213) expressing Escherichia coli MsbA assessed as bacterial growth inhibition by broth microdilution assay; format: functional
[13] = test system: Enterobacter cloacae; experiment: Antibacterial activity against wild type Enterobacter cloacae (ATCC 13047) assessed as bacterial growth inhibition by broth microdilution assay; format: functional
[14] = test system: Escherichia coli; experiment: Antibacterial activity against wild type Escherichia coli CFT073 (ATCC 700928) assessed as bacterial growth by broth microdilution assay; format: functional
[15] = test system: Escherichia coli; experiment: Antibacterial activity against wild type Escherichia coli CFT073 (ATCC 700928) assessed as induction of cell lysis at 50 microM by electron microscopy; format: functional, organism-based

IC50 [1]: 3 nM | MIC [2]: > 100 µM | logD [4]: 4.3 | MIC [5]: > 100 µM | MIC [6]: 6 µM (≈ 2.71 µg/mL) | half-life [7]: 1.4 h | clearance [8]: 8 mL/min/kg | MIC [9]: > 71 µM | MIC [12]: 0.8 µM (≈ 0.361 µg/mL) | MIC [13]: 6 µM (≈ 2.71 µg/mL) | MIC [14]: 6 µM and 2.7 µg/mL
Structure (SMILES): C[C@H](Oc1ccc2ccc(/C=C/c3nn[nH]n3)c(C3CC3)c2c1)c1c(Cl)cccc1Cl
Activity [3]: Active | Activity [10]: Active | Selectivity ratio [11]: > 89 | Activity [15]: Active
